How the values were obtained:
[1] = test system: rat myocardial infarction model (left anterior descending (LAD) artery ligation); experiment: Rat myocardial infarction model (LAD artery ligation), echocardiographic function of the remote myocardium; type: in vivo
Description: Although believed to be applicable to several different precipitating causes of CHF, the present inventor initially chose a myocardial infarction model because it would allow the effects of the infarct on the normal remaining myocardium to be studied without confounding factors, particularly the presence of disease in the tissues studied.
An important consequence of an MI is that the uninvolved, often normal, remote myocardium (RM) must assume the entire workload of the ventricle. […] The subcellular events which control and set in motion, the progression to CHF were heretofore unknown. The present inventor hypothesized that the progression begins when the remaining normal myocardium (RM) must assume the entire cardiac load, in effect a large increase for the RM, producing an unfavorable myocardial energy supply/demand ratio which leads to depressed myocardial energy levels. Moreover, because of the continuous nature of the stress imposed, there is essentially no opportunity to recover. As a result, the continued breakdown of AMP with further erosion of ATP levels occurs. Studies to understand this progression in a myocardial infarction (MI) model were undertaken. The hypothesis that a fall in RM energy levels, including myocardial ATP, leads to decreased function was tested by infusing ribose in a rat MI model. A rat myocardial infarction model involving (left anterior descending (LAD) artery ligation) was utilized. In this model the RM must produce the entire cardiac output and left ventricular (LV) dysfunction develops as depicted in FIG. 2 and in the results depicted in FIGS. 3-6.
Methods: Male Lewis rats (250-300 g, n=12) were evaluated by initial baseline 2D guided M-mode echocardiographic analysis using an HP SONOS 1550 system. The echocardiography included short axis views and EF by cubed formula, analyzing the variables of LVdd, LVsd, RM wall thickness, EF and SF. […] Animals underwent ligation of the left anterior descending coronary artery by to produce an anterior wall MI at 1-2 days after pump placement and received continuous venous infusion of 0.9% NaCl solution (at 30 μl/kg/hr) with or without 2.5% D-ribose (N=6 for each group) via the implanted osmotic mini-pump for 14 days. Echocardiographic analysis was performed 2 and 4 weeks post-MI to assess changes in function by ejection indices (ventricular contractility, ejection and shortening fractions), chamber dimensions, and wall thickness. FIG. 3 depicts the M-mode echocardiographic appearance of a rat heart in which post MI CHF has developed.

[2] = test system: patients with chronic coronary artery disease and CHF; settings: 3 weeks of oral D-ribose, 15 patients with existing CHF, cited from earlier work
myocardial ATP levels [3] = settings: cited from earlier work
myocardial ATP levels [4] = settings: rats given a toxic dose of isoproterenol and constriction of the abdominal aorta; cited from earlier work
rodent MI model = settings: continuous i.v. ribose from before ligation for up to 48 hours, cited from earlier work
[5] = 2 wks post MI, 2.5% D-ribose continuous venous infusion for 14 days
[6] = 4 wks post MI, 2.5% D-ribose continuous venous infusion for 14 days
[7] = Pre-MI (baseline), ribose group
[8] = ribose infusion for 14 days after MI

## O=C[C@H](O)[C@H](O)[C@H](O)CO [Ribose, D-ribose]
[1]; [5]
  Ejection fraction (EF): 50.5 ± 5.9 %
  LV diastolic diameter: 0.72 ± 0.08 cm
  LV systolic diameter: 0.47 ± 0.22 cm
  Posterior wall diastolic thickness: 0.18 ± 0.12 cm
  Shortening fraction (SF): 19.8 ± 4.4%
[1]; [6]
  Ejection fraction (EF): 49.1 ± 9.4 %
  LV diastolic diameter: 0.76 ± 0.07 cm
  LV systolic diameter: 0.64 ± 0.09 cm
  Posterior wall diastolic thickness: 0.13 ± 0.03 cm
  Septal diastolic thickness: 0.12 ± 0.02 cm
  Shortening fraction (SF): 19.9 ± 6.1 %
[1]; [7]
  Ejection fraction (EF): 76.4 ± 5.9%
  LV systolic diameter: 0.39 ± 0.06 cm
  Posterior wall diastolic thickness: 0.13 ± 0.02 cm
  Septal diastolic thickness: 0.13 ± 0.02 cm
  Shortening fraction (SF): 38.6 ± 5.3%
[1]; Pre-MI (baseline), ribose group, 2.5% D-ribose continuous venous infusion 30 μl/kg/hr for 14 days
  LV diastolic diameter: 0.64 ± 0.04 cm
[1]; [8]
  contractility (EF, SF) compared to the untreated animals: better preserved
  ventricular dilation: significantly reduced
  wall thickness compared to the untreated animals: increased
[2]; P< or =0.01
  quality of life by questionnaire: 467±128
[2]; P=0.002
  E wave deceleration: 196±42
[2]; P=0.02
  left atrial dimension: 47 ± 18 mL
Myocardial ATP levels [3]; acute stress models of recovery (i.e. global ischemia), ribose bypasses the G6PDH step
  speeding of ATP recovery: at least 10 fold
Myocardial ATP levels [3]; global ischemia and reperfusion model, ribose infusion
  return of myocardial ATP levels and function: greatly enhance return
Myocardial ATP levels [4]
  ATP levels: maintained for 24 hours
Rodent MI model
  post-MI rise in LV end-diastolic pressure: reduced
Rodent MI model; first (24 hr) time point
  fall of ATP in the nonischemic myocardium: reduce the fall of ATP
